The record followed here is PMC8000395, “Effective Small Molecule Antibacterials from a Novel Anti-Protein Secretion Screen” (Microorganisms, 2021).

Assay [1] relates to Serratia marcescens. Briefly: Antimicrobial activity test (growth, OD600). It counts as cell-based. Conditions: read-out: Bacterial Viability (IC50).
Assay [2] concerns Morganella morganii. Briefly: Antimicrobial activity test (growth, OD600). It is filed as cell-based. To be noted: read-out: Bacterial Viability (IC50).
Assay [3] relates to Haemophilus influenzae. Briefly: Antimicrobial activity test (growth, OD600). It is filed as cell-based. Conditions: read-out: Bacterial Viability (IC50).
Assay [4] deals with PhoA secretion in E. coli BW25113. Briefly: Lab-scale p-nitrophenyl PhoA secretion assay, BW25113. It counts as cell-based. To be noted: Escherichia coli, read-out: PhoA secretion in vivo IC50, E. coli BW25113.
Assay [5] relates to Salmonella typhimurium. In words: Antimicrobial activity test (growth, OD600). It is filed as cell-based. Conditions: Salmonella enterica, read-out: Bacterial Viability (IC50).
Assay [6] has as its system Shigella sonnei. In words: Antimicrobial activity test (growth, OD600). To be noted: read-out: Bacterial Viability (IC50). It counts as cell-based.
The subject of assay [7] is Campylobacter jejuni. Briefly: Antimicrobial activity test (growth, OD600). Conditions: read-out: Bacterial Viability (IC50). It is filed as cell-based.
In assay [8] the test system is Gram-negative and Gram-positive bacteria. Briefly: Antimicrobial activity test, summary over Gram-negative and Gram-positive bacteria. It is filed as cell-based. To be noted: for Antibacterial character: 19 Gram-negative and Gram-positive species evaluated; for IC50: summary over species, read-out: Viability of Gram-negative and Gram-positive bacteria IC50 (range over species).

Assay [9] concerns E. coli BL21. Briefly: Antimicrobial activity test (growth, OD600). It counts as cell-based. To be noted: Escherichia coli, BL21, BL21; 20 h, 37 °C, OD600; read-out: Bacterial Viability IC50, E. coli BL21.
For assay [10], the system named is E. coli BW25113ΔtolC. In words: Antimicrobial activity test (growth, OD600). Conditions: for Higher sensitivity of ΔtolC and imp-2413+ derivatives compared to BW25113: viability, Figure 5A.

Like-named read-outs stand apart in the source and are kept apart here.

A word on the IC50: it is the midpoint of a concentration-inhibition curve.

Turning to `O=C(/C=C/c1csnn1)c1ccccc1Cl` [HSI#01], the IC50 in assay [1] was greater than 100 µM; in assay [2], greater than 100 µM; in assay [3], greater than 100 µM; in assay [4] it was 8.13 µM; in [5], greater than 100 µM; in assay [6], greater than 100 µM. The IC50 in [7] is greater than 100 µM; in [8] it was 1 to 37 µM; in assay [9], greater than 100 µM; in [10] (Escherichia coli, read-out: Viability IC50, BW25113ΔtolC, E. coli strain missing TolC), less than 14 µM. In [8], the Antibacterial character entry was “bacteriocidal”. Further, the “Higher sensitivity of ΔtolC and imp-2413+ derivatives compared to BW25113” value in assay [10] is reported as 2 to 40 times.

For `O=C(/C=C/c1csnn1)c1cc(Cl)ccc1Cl` [HSI#05], the IC50 in assay [1] was greater than 100 µM; in [2], greater than 100 µM; in assay [3], greater than 100 µM; in assay [4], 3.2 µM; in [5] it was greater than 100 µM; in assay [6], greater than 100 µM. Also, the IC50 was greater than 100 µM in assay [7]; 1 to 37 µM in assay [8]; greater than 100 µM in assay [9]; less than 14 µM in [10] (read-out: Viability IC50, BW25113ΔtolC, E. coli strain missing TolC, listed as HSI#5). Besides, the Antibacterial character result in assay [8] is “bacteriocidal”. Also, in assay [10], the “Higher sensitivity of ΔtolC and imp-2413+ derivatives compared to BW25113” value is recorded as 2 to 40 times.

For the compound `O=C(/C=C/c1csnn1)c1cccc2ccccc12` [HSI#10], the IC50 is greater than 100 µM in [1]; greater than 100 µM in assay [2]; greater than 100 µM in assay [3]; 24.9 µM in assay [4]; greater than 100 µM in assay [5]; greater than 100 µM in assay [6]. Besides, the IC50 in [7] was greater than 100 µM; in [8] it was 1 to 37 µM; in assay [9], greater than 100 µM. Besides, the Antibacterial character result in [8] is reported as “bacteriocidal”. Also, the “Higher sensitivity of ΔtolC and imp-2413+ derivatives compared to BW25113” value in assay [10] is listed as 2 to 40 times.
